The values that follow come from patent publication US20080300232A1, “N-Piperidine Derivatives as Ccr3 Modulators” (ASTRAZENECA AB, priority 2004, published 2008).

In one test the test system is Male Wistar-Hanover rats. The experiment in a line: Pharmacodynamic effect in rat (food intake and body weight after fasting). The test is classed as in vivo. Conditions: 16.7 μmol/kg i.p. amorphous nanoparticle formulation, time interval 0-4 h. The method, then:
Pharmacodynamic Effect in Rat
Male Wistar-Hanover rats (Charles River, 300-350 grams) were acclimated to individually housing in conventional cages (Makrolon III) with 12:12 hour light-dark photoperiod (lights on at 06.00) in a temperature (20-22° C.) and humidity (40-60%) controlled room. R-3 lab chow (Lactanin, Vadstena, Sweden) and tap water from bottles were allowed ad libidum. At 16.00 on the day before experiments, animals were weighed & food (but not water) was removed. At 08.00 on experiment day, animals were weighed & compound (i.p. amorphous nanoparticle formulation, 5 ml/kg) or vehicle (3-10% DMA depending on compound formulation) administered. Animals were returned to their home cages & given access to a weighed amount of food. This food was then re-weighed 1, 2, 4, 6 & 24 hours later, and food consumption calculated by the difference from initial food weight.
Animals were further weighed at the 24-hr timepoint, and change in body weight over the treatment period was calculated.

The target in test [1] is T1, human Melanin concentrating hormone receptor 1 (MCH1r) (Homo sapiens, UniProt Q99705).
T1 construct: expressed in transfected cells; host or cells: CHO-K1
The experiment in a line: MCH1 receptor radioligand binding (125I-MCH, CHO-K1 cell membranes). Particulars: CHO-K1 membranes expressing human MCH1r, 30° C., 60 minutes, read-out: IC50 in human MCHr binding assay. The method, then:
MCH1 Receptor Radioligand Binding.
Assays were performed on membranes prepared from CHO—K1 cells expressing the human Melanin concentrating hormone receptor 1 (MCH1r). Assays were performed in a 96-well plate format in a final reaction volume of 200 μl per well. Each well contained 6 μg of membrane proteins diluted in binding buffer (50 mM Tris, 3 mM MgCl2, 0.05% bovine serum albumin and the radioligand ^125I-MCH (IM344 Amersham) was added to give 10 000 cpm (counts per minute) per well. Each well contained 2 μl of the appropriate concentration of competitive antagonist prepared in DMSO and left to stand at 30° C. for 60 minutes. Non-specific binding was determined as that remaining following incubation with 1 μM MCH (Melanin concentrating hormone, H-1482 Bachem). The reaction was terminated by transfer of the reaction to GF/A filters using a Micro96 Harvester (Skatron Instruments, Norway). Filters were washed with assay buffer. Radioligand retained on the filters was quantified using al450 Microbeta TRILUX (Wallac, Finland).
Non-specific binding was subtracted from all values determined. Maximum binding was that determined in the absence of any competitor following subtraction of the value determined for non-specific binding. Binding of compounds at various concentrations was plotted according to the equation
and IC50 estimated where A is the bottom plateau of the curve i.e. the final minimum y value B is the top of the plateau of the curve i.e. the final maximum y value C is the x value at the middle of the curve. This represents the log EC50 value when A+B=100 D is the slope factor. x is the original known x values. y is the original known y values.

The target of the next test is T2, recombinant hMCHr (Homo sapiens, UniProt Q99705).
T2 construct: purchased Euroscreen
The experiment in a line: MCH1 functional assay ([35S]GTPγS binding, membranes with recombinant hMCHr). Particulars: ED80 concentration of MCH, 45 min at 30° C., read-out: IC50 of antagonists in MCH1 functional assay. In kind it is biochemical. The method, then: Membranes expressing recombinant hMCHr (5.45 pmol/mg protein; Euroscreen) were prepared in assay buffer (50 mM HEPES, 100 mM NaCl, 5 mM MgCl2, 1 mM EDTA, 200 μM DTT, 20 μM GDP (Sigma) containing 0.1 μg/ml BSA, pH7.4) before assay. The assays were performed using membranes at 6 μg/well in an assay volume of 200 μl and the appropriate concentrations of compounds prepared in DMSO. The reaction was started by addition of 0.056 nM [^35S]GTPγS (Specific activity >1000 Ci/mmol; Amersham) and an ED80 concentration of MCH (determined for each membrane and each MCH batch). Non-specific binding was determined using 20 μM non-radiolabelled GTPγS. Plates were incubated for 45 min at 30° C. Free and bound GTPγS were separated by filtration binding using GF/B filter mats presoaked in wash buffer (50 mM Tris, 5 mM MgCl2, 50 mM NaCl, pH 7.4) using a Micro96 cell harvester (Skatron Instruments) and the filters then dried at 50° C. before counting using al450 Microbeta TRILUX (Wallac).
Data are means ±SD for experiments performed in triplicate. IC50 values of antagonists were determined using non-linear regression analysis of concentration response curves using Activity Base.

T1 sequence (Q99705 whole entry): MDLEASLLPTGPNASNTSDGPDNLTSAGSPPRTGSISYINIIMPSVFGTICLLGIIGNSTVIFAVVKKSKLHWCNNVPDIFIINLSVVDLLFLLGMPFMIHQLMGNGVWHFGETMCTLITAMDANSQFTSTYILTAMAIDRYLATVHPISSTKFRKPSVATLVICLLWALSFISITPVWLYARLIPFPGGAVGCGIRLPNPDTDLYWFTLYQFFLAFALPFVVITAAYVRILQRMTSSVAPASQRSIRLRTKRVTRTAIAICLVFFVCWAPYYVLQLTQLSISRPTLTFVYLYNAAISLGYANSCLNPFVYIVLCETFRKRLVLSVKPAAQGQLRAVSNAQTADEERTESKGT
T2 sequence (Q99705 whole entry): as above

Consider `N#Cc1ccccc1OCC(=O)NC1CCN(Cc2ccn(-c3ccc(C(F)(F)F)cc3)c2)CC1` [Example 34, 2-(2-cyanophenoxy)-N-[1-({1-[4-(trifluoromethyl)phenyl]-1H-pyrrol-3-yl}methyl)piperidin-4-yl]acetamide], for which the reduced food intake in the test on Male Wistar-Hanover rats is recorded as 20%.

Take `COc1ccc(-n2ccc(CN3CCC(NC(=O)COc4cccc(Cl)c4)CC3)c2)cc1` [Example 3, 2-(3-chlorophenoxy)-N-({[1-(4-methoxyphenyl)-1H-pyrrol-3-yl]methyl}piperidin-4-yl)acetamide]: the half-maximal inhibitory concentration (IC50) worked out at 0.167 µM in test [1] and 0.045 µM on recombinant hMCHr.

Regarding `O=C(COc1cccc(Cl)c1)NC1CN(Cc2ccn(-c3ccc(C(F)(F)F)cc3)c2)C1` [Example 41, 2-(3-chlorophenoxy)-N-[1-({1-[4-(trifluoromethyl)phenyl]-1H-pyrrol-3-yl}methyl)azetidin-3-yl]acetamide], the IC50 in test [1] stood at 0.039 µM.

Take `O=C(COc1ccc(F)c(F)c1)NC1CCN(Cc2ccn(-c3ccc(C(F)(F)F)cc3)c2)C1` (stereo not drawn) [Example 44, 2-(3,4-difluorophenoxy)-N-[1-({1-[4-(trifluoromethyl)phenyl]-1H-pyrrol-3-yl}methyl)pyrrolidin-3-yl]acetamide]: the IC50 in test [1] turned out to be 0.027 µM.

As for `O=C(CCc1cccc(Cl)c1)NC1CCN(Cc2ccn(-c3ccc(C(F)(F)F)cc3)c2)CC1` [Example 29, 3-(3-chlorophenyl)-N-[1-({1-[4-(trifluoromethyl)phenyl]-1H-pyrrol-3-yl}methyl)piperidin-4-yl]propanamide], the IC50 (in test [1]; at recombinant hMCHr) was 0.066 µM in each case.

As for `O=C(COc1cccc(Cl)c1)NC1CCN(Cc2ccc(-c3ccc(Cl)cc3)o2)CC1` [Example 8, 2-(3-chlorophenoxy)-N-(1-{[5-(4-chlorophenyl)-2-furyl]methyl}piperidin-4-yl)acetamide], the half-maximal inhibitory concentration (IC50) in test [1] is 0.105 µM; on recombinant hMCHr it was 0.111 µM.
